Measured values as given in patent US12661410B2, “Compounds for targeted degradation of RET” (C4 Therapeutics, Inc., priority 2020, dated 2026).
Positions count from the first letter of the chain named. Read-outs that look alike come from different tables or passages of the source.

Columns and labels:
[1] = molecular target: T1, RET(KD: 658-1114 G810R) (Homo sapiens, UniProt P07949, G810R); test: HiBiT-Degradation, RET G810R degradation assay (Nano-Glo HiBiT Lytic), 293T.165 cells; type: cell-based; conditions: for Emax / DC50: 6.0 hours
T1 construct: 658-1114; expressed in transfected cells; host or cells: 293T.165 (293T cells, generated in-house)
T1 sequence (P07949 658-1114 G810R): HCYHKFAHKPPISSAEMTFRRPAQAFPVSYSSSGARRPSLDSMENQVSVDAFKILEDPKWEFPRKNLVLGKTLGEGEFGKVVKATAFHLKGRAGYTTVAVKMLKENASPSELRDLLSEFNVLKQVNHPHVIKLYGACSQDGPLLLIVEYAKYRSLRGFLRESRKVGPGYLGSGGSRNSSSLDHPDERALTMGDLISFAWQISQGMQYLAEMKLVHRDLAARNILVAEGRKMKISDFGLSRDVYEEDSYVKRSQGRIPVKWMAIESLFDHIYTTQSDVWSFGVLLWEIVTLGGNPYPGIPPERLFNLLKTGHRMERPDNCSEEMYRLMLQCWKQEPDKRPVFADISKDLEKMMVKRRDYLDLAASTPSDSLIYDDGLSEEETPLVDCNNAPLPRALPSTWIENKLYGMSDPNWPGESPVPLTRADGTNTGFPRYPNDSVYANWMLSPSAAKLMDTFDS
In short: (§1)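 HEK293T lines expressing HiBiT-tagged RET kinase domain, wild-type (293T.144) or G810R (293T.165), treated 6 h in duplicate, 11-point half-log series from 10 μM top. Lytic HiBiT luminescence read; DC50 and Emax (% protein remaining) from dose-response curves.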

[2] = molecular target: T2, RET (658-1114) (Homo sapiens, UniProt P07949); test: HiBiT-Degradation, RET wild-type degradation assay (Nano-Glo HiBiT Lytic), 293T.144 cells; type: cell-based; conditions: for DC50 / Emax: 6.0 hours
T2 construct: 658-1114; expressed in transfected cells; host or cells: 293T.144 (293T cells, generated in-house)
T2 sequence (P07949 658-1114): T1 sequence (P07949 658-1114 G810R) with R153G
In short: as §1

[3] = % remaining protein, read-out: 293T.165 RET(KD: 658-1114 G810R) 6.0 hours (Emax)
[4] = half-maximal degradation concentration, read-out: 293T.165 RET(KD: 658-1114 G810R) 6.0 hours (DC50)
[5] = HiBiT-Degradation, read-out: 293T.165 RET(KD: 658-1114 G810R) 6.0 hours (DC50)
[6] = HiBiT-Degradation, read-out: 293T.144 RET (658-1114) 6.0 hours (DC50)
[7] = HiBiT-Degradation, read-out: 293T.144 RET (658-1114) 6.0 hours (Emax)
[8] = % remaining protein, read-out: 293T.144 RET (658-1114) 6.0 hours (Emax)
[9] = half-maximal degradation concentration, read-out: 293T.144 RET (658-1114) 6.0 hours (DC50)

| SMILES | Emax [1, 3] [%] | DC50 [1, 4] [nM] | 293T.165 RET(KD: 658-1114 G810R) 6.0 hours (Emax) ([1]; HiBiT-Degradation) | 293T.165 RET(KD: 658-1114 G810R) 6.0 hours (IP) [nM] ([1]; HiBiT-Degradation) | DC50 [1, 5] [nM] | 293T.144 RET (658-1114) 6.0 hours (IP) [nM] ([2]; HiBiT-Degradation) | DC50 [2, 6] [nM] | Emax [2, 7] [%] | 293T.165 RET(KD: 658-1114 G810R) 6.0 hours (IP) [nM] [1] | 293T.144 RET (658-1114) 6.0 hours (IP) [nM] [2] | Emax [2, 8] [%] | DC50 [2, 9] [nM] | HiBiT-Degradation 293T.165 RET(KD: 658-1114 G810R) 6.0 hours (IP) [nM] ([1]; RET G810R) | DC50 ([1]; RET G810R, read-out: HiBiT-Degradation 293T.165 RET(KD: 658-1114 G810R) 6.0 hours (DC50)) [nM] | Emax ([1]; RET G810R, read-out: HiBiT-Degradation 293T.165 RET(KD: 658-1114 G810R) 6.0 hours (Emax)) [%] | HiBiT-Degradation 293T.144 RET (658-1114) 6.0 hours (IP) [nM] ([2]; RET wild-type) | DC50 ([2]; RET wild-type, read-out: HiBiT-Degradation 293T.144 RET (658-1114) 6.0 hours (DC50)) [nM] | Emax ([2]; RET wild-type, read-out: HiBiT-Degradation 293T.144 RET (658-1114) 6.0 hours (Emax)) [%] |
| --- | --- | --- | --- | --- | --- | --- | --- | --- | --- | --- | --- | --- | --- | --- | --- | --- | --- | --- |
| CC(C)NC(=O)C1(C)CCN(c2ccc(-c3cc(-c4ccc(N5CCN(C(=O)CC6(O)CCN(c7ccc(NC8CCC(=O)NC8=O)cc7F)CC6)CC5)cc4)cn4ncc(C#N)c34)cn2)CC1 (centres unmarked) [Compound 32, 1-(5-(3-Cyano-6-(4-(4-(2-(1-(4-((2,6-dioxopiperidin-3-yl)amino)-2-fluorophenyl)-4-hydroxypiperidin-4-yl)acetyl)piperazin-1-yl)phenyl)pyrazolo[1,5-a]pyridin-4-yl)pyridin-2-yl)-N-isopropyl-4-methylpiperidine-4-carboxamide] | < 50 | < 50 | +++ (<50% = +++) | ++++ (< 50 nM = ++++) | < 50 | ++++ (< 50 nM = ++++) | < 50 | < 30 |  |  |  |  |  |  |  |  |  |  |
| N#Cc1cnn2cc(-c3ccc(N4CCN(C(=O)CC5(O)CCN(c6ccc(NC7CCC(=O)NC7=O)cc6F)CC5)CC4)cc3)nc(-c3ccc(N4CC5CC(C4)N5Cc4ccccc4)nc3)c12 (centres unmarked) [Compound 177, 4-(6-(6-benzyl-3,6-diazabicyclo[3.1.1]heptan-3-yl)pyridin-3-yl)-6-(4-(4-(2-(1-(4-((2,6-dioxopiperidin-3-yl)amino)-2-fluorophenyl)-4-hydroxypiperidin-4-yl)acetyl)piperazin-1-yl)phenyl)pyrazolo[1,5-a]pyrazine-3-carbonitrile] | < 30 | < 100 |  |  |  |  |  |  | ++++ (<50 nM = ++++) | ++++ (<50 nM = ++++) | < 30 | < 50 |  |  |  |  |  |  |
| CCC1(C(=O)NC(C)C)CCN(c2ccc(-c3cc(-c4cnn(C5CCN(C(=O)CN6CCC(c7ccc(NC8CCC(=O)NC8=O)cc7F)CC6)CC5)c4)cn4ncc(C#N)c34)cn2)CC1 (centres unmarked) [Compound 3, 1-(5-(3-Cyano-6-(1-(1-(2-(4-(4-((2,6-dioxopiperidin-3-yl)amino)-2-fluorophenyl)piperidin-1-yl)acetyl)piperidin-4-yl)-1H-pyrazol-4-yl)pyrazolo[1,5-a]pyridin-4-yl)pyridin-2-yl)-4-ethyl-N-isopropylpiperidine-4-carboxamide] | < 30 | < 50 | ++++ (< 30% = ++++) | ++++ (< 50 nM = ++++) | < 50 | ++++ (< 50 nM = ++++) | < 50 | < 30 |  |  |  |  |  |  |  |  |  |  |
| CCC1(C(=O)NC2CCC2)CCN(c2ccc(-c3nc(-c4cnn([C@H]5CC[C@H](N6CCC(c7ccc(NC8CCC(=O)NC8=O)cc7Cl)CC6)CC5)c4)cn4ncc(C#N)c34)cn2)CC1 (single isomer, unassigned) [Compound 133, 1-[5-[6-[1-[4-[4-[2-chloro-4-[(2,6-dioxo-3-piperidyl)amino]phenyl]-1-piperidyl]cyclohexyl]pyrazol-4-yl]-3-cyano-pyrazolo[1,5-a]pyrazin-4-yl]-2-pyridyl]-N-cyclobutyl-4-ethyl-piperidine-4-carboxamide] | < 30 | < 50 |  |  |  |  |  |  |  |  | < 30 | < 50 |  |  |  |  |  |  |
| CCC1(C(=O)NC(C)C)CCN(c2ccc(-c3nc(-c4cnn(C5CCN(C(=O)CC6(O)CCN(c7ccc(NC8CCC(=O)NC8=O)c(F)c7)CC6)CC5)c4)cn4ncc(C#N)c34)cn2)CC1 (centres unmarked) [Compound 69, 1-[5-[3-cyano-6-[1-[1-[2-[1-[4-[(2,6-dioxo-3-piperidyl)amino]-3-fluoro-phenyl]-4-hydroxy-4-piperidyl]acetyl]-4-piperidyl]pyrazol-4-yl]pyrazolo[1,5-a]pyrazin-4-yl]-2-pyridyl]-4-ethyl-N-isopropyl-piperidine-4-carboxamide] | < 50 | < 100 |  |  |  |  |  |  |  |  |  |  | ++++ (< 50 nM = ++++) | < 100 | < 50 | ++++ (< 50 nM = ++++) | < 50 | < 30 |
| N#Cc1cnn2cc(-c3cnn([C@H]4CC[C@H](CCN5CCC(c6ccc(NC7CCC(=O)NC7=O)cc6F)CC5)CC4)c3)nc(-c3ccc(N4CCN(C(=O)Cc5ccc(F)cn5)CC4)nc3)c12 (some centres unmarked) [Compound 60, 6-[1-[(1r,4r)-4-[2-[4-[4-[(2,6-dioxo-3-piperidyl)amino]-2-fluoro-phenyl]-1-piperidyl]ethyl]cyclohexyl]pyrazol-4-yl]-4-[6-[4-[2-(5-fluoro-2-pyridyl)acetyl]piperazin-1-yl]-3-pyridyl]pyrazolo[1,5-a]pyrazine-3-carbonitrile] | < 30 | < 50 | ++++ (< 30% = ++++) | ++++ (< 50 nM = ++++) | < 50 | ++++ (< 50 nM = ++++) | < 50 | < 30 |  |  |  |  |  |  |  |  |  |  |
| CCC1(C(=O)NC2CCC2)CCN(c2ccc(-c3nc(-c4cnn([C@H]5C[C@](F)(CN6CCN(c7ccc(N[C@@H]8CCC(=O)NC8=O)cc7F)CC6)C5)c4)cn4ncc(C#N)c34)cn2)CC1 [Compound 187, 1-[5-[3-cyano-6-[1-[3-[[4-[4-[[(3R)-2,6-dioxo-3-piperidyl]amino]-2-fluoro-phenyl]piperazin-1-yl]methyl]-3-fluoro-cyclobutyl]pyrazol-4-yl]pyrazolo[1,5-a]pyrazin-4-yl]-2-pyridyl]-N-cyclobutyl-4-ethyl-piperidine-4-carboxamide] | < 30 | < 50 |  |  |  |  |  |  | ++++ (<50 nM = ++++) | ++++ (<50 nM = ++++) | < 30 | < 50 |  |  |  |  |  |  |
| N#Cc1cnn2cc(-c3ccc(N4CCN(C(=O)CC5(O)CCN(c6ccc(NC7CCC(=O)NC7=O)cc6)CC5)CC4)cc3)cc(-c3ccc(N4CCN(C(=O)Cc5ccc(F)cn5)CC4)nc3)c12 (centres unmarked) [Compound 49, 6-[4-[4-[2-[1-[4-[(2,6-dioxo-3-piperidyl)amino]phenyl]-4-hydroxy-4-piperidyl]acetyl]piperazin-1-yl]phenyl]-4-[6-[4-[2-(5-fluoro-2-pyridyl)acetyl]piperazin-1-yl]-3-pyridyl]pyrazolo[1,5-a]pyridine-3-carbonitrile] | < 50 | < 100 | +++ (<50% = +++) | ++++ (< 50 nM = ++++) | < 100 | ++++ (< 50 nM = ++++) | < 50 | < 30 |  |  |  |  |  |  |  |  |  |  |
| CCC1(C(=O)NC2CCOCC2)CCN(c2ccc(-c3nc(-c4cnn([C@H]5CC[C@H](N6CCC(c7ccc(N[C@@H]8CCC(=O)NC8=O)cc7F)CC6)CC5)c4)cn4ncc(C#N)c34)cn2)CC1 (stereo in doubt) [Compound 143, 1-(5-(3-cyano-6-(1-((1R,4r)-4-(4-(4-(((R)-2,6-dioxopiperidin-3-yl)amino)-2-fluorophenyl)piperidin-1-yl)cyclohexyl)-1H-pyrazol-4-yl)pyrazolo[1,5-a]pyrazin-4-yl)pyridin-2-yl)-4-ethyl-N-(tetrahydro-2H-pyran-4-yl)piperidine-4-carboxamide] | < 30 | < 50 |  |  |  |  |  |  | ++++ (<50 nM = ++++) | ++++ (<50 nM = ++++) | < 30 | < 50 |  |  |  |  |  |  |
